Results published in patent US20100075973A1, “POLO-LIKE KINASE INHIBITORS” (TAKEDA PHARMACEUTICAL COMPANY LIMITED, priority 2008, published 2010).
Several values for one entry are separate records, joined by “and”; a condition that tells them apart may be missing. Identical values can stand only once.

Columns and labels:
[1] = target: T1, human PLK1 (Homo sapiens, UniProt P53350); assay: In vitro enzymatic assay: phosphorylation of alpha casein by recombinant PLK1 (Example A); assay type: biochemical; conditions: recombinant FLAG-tagged PLK1, alpha casein substrate, 500 nmol/L ATP, [γ-32P]ATP, room temperature 40 min; read-out: pIC50 PLK1 (converted)
T1 construct: made in house; host or cells: Sf21 insect cells, recombinant baculovirus (pFASTBAC1, Bac-to-Bac)
T1 sequence (P53350 whole entry): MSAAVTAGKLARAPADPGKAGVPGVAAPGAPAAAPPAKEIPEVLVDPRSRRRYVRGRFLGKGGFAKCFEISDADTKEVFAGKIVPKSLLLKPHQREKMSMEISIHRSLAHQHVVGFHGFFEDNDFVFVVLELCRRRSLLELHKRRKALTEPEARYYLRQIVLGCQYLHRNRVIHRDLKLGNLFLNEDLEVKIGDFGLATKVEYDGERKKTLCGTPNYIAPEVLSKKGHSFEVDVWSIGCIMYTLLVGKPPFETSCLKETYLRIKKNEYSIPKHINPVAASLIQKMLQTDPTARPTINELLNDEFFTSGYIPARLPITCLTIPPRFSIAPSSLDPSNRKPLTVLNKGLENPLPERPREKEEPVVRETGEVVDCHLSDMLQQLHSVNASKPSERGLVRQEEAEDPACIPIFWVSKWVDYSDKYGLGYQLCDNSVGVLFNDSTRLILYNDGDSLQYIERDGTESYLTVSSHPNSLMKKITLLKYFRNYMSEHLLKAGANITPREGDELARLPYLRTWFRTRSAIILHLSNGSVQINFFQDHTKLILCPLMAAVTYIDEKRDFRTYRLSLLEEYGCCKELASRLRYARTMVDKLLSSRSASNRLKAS
Experimental: Purified PLK1 may be obtained as follows. cDNA encoding human PLK1 SEQ ID No. 1, Accession Number: NM_005030 was isolated by polymerase chain reaction PCR with primers SEQ ID Nos. 2 and 3 and cloned into pcDNA4/His-Max-TOPO Invitrogen, USA according to the manufacturer's manual. PCR was performed using the vector as a template. In the PCR, primers containing sequences encoding a FLAG-tag DYKDDDDK in the amino-terminal region SEQ ID No. 4 and vector sequence SEQ ID No. 5 were used. After XbaI and XhoI digestion of the PCR product, the fragment was subcloned into pFASTBAC1 Invitrogen, USA. Recombinant baculoviruses were prepared according to the procedure of the Bac-to-Bac baculovirus expression system Invitrogen, USA. Sf21 cells were purchased from Invitrogen and grown in Sf-900 II SFM medium containing 10% fetal bovine serum, 50 gentamicin and 0.1% pluronic F-68 Invitrogen, USA at 28° C. For preparation of PLK1 enzyme, Sf21 cells were infected with recombinant baculoviruses and cultured at 28° C. for 72 h. Cells were lysed and FLAG-tagged PLK1 protein SEQ ID No. 6 was purified by affinity chromatography using anti-FLAG M2 affinity gel Sigma, USA.
The inhibition of PLK1 by the compounds was determined with the following assay that measures the phosphorylation of alpha casein by recombinant PLK1. Kinase reactions were performed at room temperature for 40 min in the kinase reaction buffer 25 mmol/L HEPES, pH 7.5, 10 mmol/L magnesium acetate, 1 mmol/L dithiothreitol containing 50 ng PLK1 enzyme, 0.1 μCi [γ-^32P]ATP, 500 nmol/L ATP and 3 μg alpha casein MP Biomedicals Inc., USA in a final volume of 50 μL. The incubation was terminated by the addition of 10% trichloroacetic acid Wako, Japan. Phosphorylated proteins were filtrated in GF/C filter plates Packard, USA with a Cell harvester Packard, USA and washed out free [γ-^32P]-ATP with 250 mmol/L phosphoric acid. Then, the plates were air dried for 60 min at 45° C., followed by the addition of 20 μL of MicroScint-O Packard, USA. The radioactivity was counted by a Top-count scintillation counter Packard, USA. The IC50 values for test compounds were calculated by Prism 3.02 GraphPad Software, USA.
pIC50 values are the negative of the log of the IC50s and may be calculated by non-linear curve fitting of the compound concentrations and fluorescence intensities to the standard pIC50 equation.

| SMILES | melting point | IC50 [1] |
| --- | --- | --- |
| CC[C@@H]1c2c(C#N)ncn2-c2cnc(Nc3cc(F)c(C(=O)N[C@H]4CC[C@H](N5CCN(CC6CC6)CC5)CC4)cc3OC)nc2N1C(C)C [Example 1] | 251 to 255 °C and 250 to 254 °C | – |
| CC[C@@H]1c2c(C#N)ncn2-c2cnc(Nc3ccc(C(=O)NC4CCC(N5CCN(C)CC5)CC4)cc3OC)nc2N1C1CCCC1 (some centres unmarked) [Example 2] | 187 to 192 °C | – |
| CC[C@@H]1c2c(C#N)ncn2-c2cnc(Nc3ccc(C(=O)NC4CCC(N5CCN(CC)CC5)CC4)cc3OC)nc2N1C1CCCC1 (some centres unmarked) [Example 3] | 170 to 173 °C | – |
| CC[C@@H]1c2c(C#N)ncn2-c2cnc(Nc3ccc(C(=O)NC4CCC(N5CCN(C(C)C)CC5)CC4)cc3OC)nc2N1C1CCCC1 (some centres unmarked) [Example 4] | 216 to 220 °C | – |
| CC[C@@H]1c2c(C#N)ncn2-c2cnc(Nc3ccc(C(=O)N[C@H]4CC[C@H](N5CCN(CC6CC6)CC5)CC4)cc3OC)nc2N1C1CCCC1 [Example 5] | 186 to 190 °C | – |
| CC[C@@H]1c2c(C#N)ncn2-c2cnc(Nc3cc(F)c(C(=O)NC4CCC(N5CCN(C)CC5)CC4)cc3OC)nc2N1C1CCCC1 (some centres unmarked) [Example 6] | > 205 °C | – |
| CC[C@@H]1c2c(C#N)ncn2-c2cnc(Nc3cc(F)c(C(=O)NC4CCC(N5CCN(CC(C)C)CC5)CC4)cc3OC)nc2N1C1CCCC1 (some centres unmarked) [Example 8] | 155 to 158 °C | – |
| CC[C@@H]1c2c(C#N)ncn2-c2cnc(Nc3ccc(C(=O)NC4CCC(N5CCN(C)CC5)CC4)cc3OC)nc2N1C(C)C (some centres unmarked) [Example 9] | 195 to 198 °C | – |
| CC[C@@H]1c2c(C#N)ncn2-c2cnc(Nc3ccc(C(=O)NC4CCC(N5CCN(CC6CC6)CC5)CC4)cc3OC)nc2N1C(C)C (some centres unmarked) [Example 11] | 198 to 204 °C | – |
| CC[C@@H]1c2c(C#N)ncn2-c2cnc(Nc3ccc(C(=O)NC4CCC(N5CCN(CC(C)C)CC5)CC4)cc3OC)nc2N1C(C)C (some centres unmarked) [Example 12] | 165 to 170 °C | – |
| CC[C@@H]1c2c(C#N)ncn2-c2cnc(Nc3cc(F)c(C(=O)NC4CCC(N5CCN(CC(C)C)CC5)CC4)cc3OC)nc2N1C(C)C (some centres unmarked) [Example 18] | 219 to 222 °C | – |
| CC[C@@H]1c2c(C#N)ncn2-c2cnc(Nc3ccc(C(=O)NC4CCN(C5CCN(CC)CC5)CC4)cc3OC)nc2N1C(C)C [Example 19, (R)-4-(7-Cyano-6-ethyl-5-isopropyl-5,6-dihydroimidazo[1,5-f]pteridin-3-ylamino)-N-(1′-ethyl-1,4′-bipiperidin-4-yl)-3-methoxybenzamide] | – | 2 nM |
| CC[C@@H]1c2c(C#N)ncn2-c2cnc(Nc3cc(F)c(C(=O)NC4CCN(C5CCN(CC)CC5)CC4)cc3OC)nc2N1C(C)C [Example 20, (R)-4-(7-Cyano-6-ethyl-5-isopropyl-5,6-dihydroimidazo[1,5-f]pteridin-3-ylamino)-N-(1′-ethyl-1,4′-bipiperidin-4-yl)-2-fluoro-5-methoxybenzamide] | – | 3.98 nM |
| CC[C@@H]1c2c(C#N)ncn2-c2cnc(Nc3ccc(C(=O)NC4CCN(C5CCN(CC6CC6)CC5)CC4)cc3OC)nc2N1C(C)C [Example 21, (R)-4-(7-Cyano-6-ethyl-5-isopropyl-5,6-dihydroimidazo[1,5-f]pteridin-3-ylamino)-N-(1′-(cyclopropylmethyl)-1,4′-bipiperidin-4-yl)-3-methoxybenzamide] | – | 3.16 nM |
| CC[C@@H]1c2c(C#N)ncn2-c2cnc(Nc3cc(F)c(C(=O)NC4CCN(C5CCN(CC6CC6)CC5)CC4)cc3OC)nc2N1C(C)C [Example 22, (R)-4-(7-Cyano-6-ethyl-5-isopropyl-5,6-dihydroimidazo[1,5-f]pteridin-3-ylamino)-N-(1′-(cyclopropylmethyl)-1,4′-bipiperidin-4-yl)-2-fluoro-5-methoxybenzamide] | – | 3.98 nM |
| CC[C@@H]1c2c(C#N)ncn2-c2cnc(Nc3ccc(C(=O)NC4CCN(C5CCN(CC(C)C)CC5)CC4)cc3OC)nc2N1C(C)C [Example 23, (R)-4-(7-Cyano-6-ethyl-5-isopropyl-5,6-dihydroimidazo[1,5-f]pteridin-3-ylamino)-N-(1′-isobutyl-1,4′-bipiperidin-4-yl)-3-methoxybenzamide] | 165 to 170 °C | – |
| CC[C@@H]1c2c(C#N)ncn2-c2cnc(Nc3ccc(C(=O)NC4CCN(C5CCN(CC6CC6)CC5)CC4)cc3OC)nc2N1C1CCCC1 [Example 26, (R)-4-(7-Cyano-5-cyclopentyl-6-ethyl-5,6-dihydroimidazo[1,5-f]pteridin-3-ylamino)-N-(1′-(cyclopropylmethyl)-1,4′-bipiperidin-4-yl)-3-methoxybenzamide] | – | 1 nM |
| CC[C@@H]1c2c(C#N)ncn2-c2cnc(Nc3ccc(C(=O)NC4CCN(C5CCN(CC(C)C)CC5)CC4)cc3OC)nc2N1C1CCCC1 [Example 27, (R)-4-(7-Cyano-5-cyclopentyl-6-ethyl-5,6-dihydroimidazo[1,5-f]pteridin-3-ylamino)-N-(1′-isobutyl-1,4′-bipiperidin-4-yl)-3-methoxybenzamide] | – | 2 nM |
| CC[C@@H]1c2c(C#N)ncn2-c2cnc(Nc3cc(F)c(C(=O)NC4CCN(C5CCN(CC(C)C)CC5)CC4)cc3OC)nc2N1C1CCCC1 [Example 29, (R)-4-(7-Cyano-5-cyclopentyl-6-ethyl-5,6-dihydroimidazo[1,5-f]pteridin-3-ylamino)-2-fluoro-N-(1′-isobutyl-1,4′-bipiperidin-4-yl)-5-methoxybenzamide] | – | 1.26 nM |
| CC[C@@H]1c2c(C#N)ncn2-c2cnc(Nc3cc(F)c(C(=O)Nc4cccc(CN5CCN(C)CC5)c4)cc3OC)nc2N1C(C)C [Example 31, (R)-4-(7-Cyano-6-ethyl-5-isopropyl-5,6-dihydroimidazo[1,5-f]pteridin-3-ylamino)-2-fluoro-5-methoxy-N-(3-((4-methylpiperazin-1-yl)methyl)phenyl)benzamide] | – | 10 nM |
| CC[C@@H]1c2c(C#N)ncn2-c2cnc(Nc3ccc(C(=O)NC4CN(C5CCN(CC6CC6)CC5)C4)cc3OC)nc2N1C(C)C [Example 37, (R)-4-(7-Cyano-6-ethyl-5-isopropyl-5,6-dihydroimidazo[1,5-f]pteridin-3-ylamino)-N-(1-(1-(cyclopropylmethyl)piperidin-4-yl)azetidin-3-yl)-3-methoxybenzamide] | – | 3.16 nM |
| CC[C@@H]1c2c(C#N)ncn2-c2cnc(Nc3cc(F)c(C(=O)NC4CN(C5CCN(CC6CC6)CC5)C4)cc3OC)nc2N1C(C)C [Example 38, (R)-4-(7-Cyano-6-ethyl-5-isopropyl-5,6-dihydroimidazo[1,5-f]pteridin-3-ylamino)-N-(1-(1-(cyclopropylmethyl)piperidin-4-yl)azetidin-3-yl)-2-fluoro-5-methoxybenzamide] | – | 3.16 nM |
| CC[C@@H]1c2c(C#N)ncn2-c2cnc(Nc3ccc(C(=O)N[C@H]4CC[C@H](N5CCN(CC6CC6)CC5)CC4)c(F)c3)nc2N1C(C)C [Example 45] | 219 to 222 °C | – |
